This passage reports EC50 results from patent US9499550B2 (BRISTOL-MYERS SQUIBB COMPANY, priority 2012, dated 2016).

The subject of experiment [1] is HCV genotype 1a (H77 strain) replicon in HUH-7 cells. Briefly: HCV replicon luciferase reporter assay, genotype 1a. The following applies: Hepatitis C virus, Huh-7, 72 h, HCV genotype 1a replicon luciferase assay, 3 days incubation, range class, read-out: LE_1a (EC50, range). Type of experiment: cell-based. An outline of the steps: (§1)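 Replicon inhibition for both genotypes was measured as Renilla luciferase signal (EnduRen, 7.5 μM final, 2 h) after 3-day, 37° C exposure of replicon-bearing HUH-7 cells in 4% FCS DMEM, 0.5% DMSO. The 1b construct carries S1179I; the 1a H77 construct carries P1496L and S2204I. Twenty-point, 3-fold dilutions were fitted four-parametrically for EC50, and CC50 was taken from multiplexed Cell Titer-Blue.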

In experiment [2] the test system is HCV genotype 1b (Con1) replicon in HUH-7 cells. Briefly: HCV replicon luciferase reporter assay, genotype 1b. Type of experiment: cell-based. The following applies: Hepatitis C virus, Huh-7, 72 h, HCV genotype 1b replicon luciferase assay, 3 days incubation, range class, read-out: LE_1b (EC50, range). Summed up: as §1
(In general: In antiviral work, replicon cells carry a viral genome segment that copies itself.)

Each structure is given as a SMILES string. pEC50: −log10 of the molar value. Where two headings read alike, the source gives them in different places.

In general, pEC50 refers to −log10 of the EC50, conventionally taken in molar units. As to `CC[C@@H]1C[C@@H](C)CC/C=C\[C@@H]2C[C@@]2(C(=O)NS(=O)(=O)C2CC2)NC(=O)[C@@H]2C[C@@H](Oc3nccc4c(OC)cccc34)CN2C(=O)[C@H]1NC(=O)OC(C)(C)C(F)(F)F` [Compound 3031, 1,1,1-trifluoro-2-methylpropan-2-yl((2R,6S,7R,9S,13aS,14aR,16aS,Z)-14a-((cyclopropylsulfonyl)carbamoyl)-7-ethyl-2-((5-methoxyisoquinolin-1-yl)oxy)-9-methyl-5,16-dioxo-1,2,3,5,6,7,8,9,10,11,13a,14,14a,15,16,16a-hexadecahydrocyclopropa[e]pyrrolo[1,2-a][1,4]diazacyclopentadecin-6-yl)carbamate], the negative logarithm of the EC50 (pEC50) in experiment [1] and in experiment [2] was 6.99 to 8.32 throughout.
As to `CC[C@@H]1C[C@H](C)CC/C=C\[C@@H]2C[C@@]2(C(=O)NS(=O)(=O)C2CC2)NC(=O)[C@@H]2C[C@@H](Oc3nccc4c(OC)cccc34)CN2C(=O)[C@H]1NC(=O)OC(C)(C)C(F)(F)F` [Compound 3032, 1,1,1-trifluoro-2-methylpropan-2-yl((2R,6S,7R,9R,13aS,14aR,16aS,Z)-14a-((cyclopropylsulfonyl)carbamoyl)-7-ethyl-2-((5-methoxyisoquinolin-1-yl)oxy)-9-methyl-5,16-dioxo-1,2,3,5,6,7,8,9,10,11,13a,14,14a,15,16,16a-hexadecahydrocyclopropa[e]pyrrolo[1,2-a][1,4]diazacyclopentadecin-6-yl)carbamate], the pEC50 in experiment [1] and in experiment [2] was above 8.26 each time.
Regarding `CC[C@@H]1C[C@@H](C)CC/C=C\[C@@H]2C[C@@]2(C(=O)NS(=O)(=O)C2(C)CC2)NC(=O)[C@@H]2C[C@@H](Oc3nccc4c(OC)cccc34)CN2C(=O)[C@H]1NC(=O)NC(C)(C)C` [Compound 3033, (2R,6S,7R,9S,13aS,14aR,16aS,Z)-6-(3-(tert-butyl)ureido)-7-ethyl-2-((5-methoxyisoquinolin-1-yl)oxy)-9-methyl-N-((1-methylcyclopropyl)sulfonyl)-5,16-dioxo-1,2,3,5,6,7,8,9,10,11,13a,14,14a,15,16,16a-hexadecahydrocyclopropa[e]pyrrolo[1,2-a][1,4]diazacyclopentadecine-14a-carboxamide], the pEC50 in experiment [1] and in experiment [2] was 6.99 to 8.32 throughout.
Regarding `CC[C@@H]1C[C@H](C)CC/C=C\[C@@H]2C[C@@]2(C(=O)NS(=O)(=O)C2(C)CC2)NC(=O)[C@@H]2C[C@@H](Oc3nccc4c(OC)cccc34)CN2C(=O)[C@H]1NC(=O)NC(C)(C)C` [Compound 3034, (2R,6S,7R,9R,13aS,14aR,16aS,Z)-6-(3-(tert-butyl)ureido)-7-ethyl-2-((5-methoxyisoquinolin-1-yl)oxy)-9-methyl-N-((1-methylcyclopropyl)sulfonyl)-5,16-dioxo-1,2,3,5,6,7,8,9,10,11,13a,14,14a,15,16,16a-hexadecahydrocyclopropa[e]pyrrolo[1,2-a][1,4]diazacyclopentadecine-14a-carboxamide], the pEC50 in experiment [1] and in experiment [2] was above 8.26 throughout.
As for `COc1cccc2c(O[C@@H]3C[C@H]4C(=O)N[C@]5(C(=O)NS(=O)(=O)C6(C)CC6)C[C@H]5/C=C\CC[C@H](C)C[C@@H](C)[C@H](NC(=O)OC(C)(C)C)C(=O)N4C3)nccc12` [Compound 3035, tert-butyl ((2R,6S,7R,9S,13aS,14aR,16aS,Z)-2-((5-methoxyisoquinolin-1-yl)oxy)-7,9-dimethyl-14a-(((1-methylcyclopropyl)sulfonyl)carbamoyl)-5,16-dioxo-1,2,3,5,6,7,8,9,10,11,13a,14,14a,15,16,16a-hexadecahydrocyclopropa[e]pyrrolo[1,2-a][1,4]diazacyclopentadecin-6-yl)carbamate], the pEC50 in experiment [1] is 6.99 to 8.32; in experiment [2] it was above 8.26.
`COc1cccc2c(O[C@@H]3C[C@H]4C(=O)N[C@]5(C(=O)NS(=O)(=O)C6(C)CC6)C[C@H]5/C=C\CC[C@@H](C)C[C@@H](C)[C@H](NC(=O)OC(C)(C)C)C(=O)N4C3)nccc12` [Compound 3036, tert-butyl ((2R,6S,7R,9R,13aS,14aR,16aS,Z)-2-((5-methoxyisoquinolin-1-yl)oxy)-7,9-dimethyl-14a-(((1-methylcyclopropyl)sulfonyl)carbamoyl)-5,16-dioxo-1,2,3,5,6,7,8,9,10,11,13a,14,14a,15,16,16a-hexadecahydrocyclopropa[e]pyrrolo[1,2-a][1,4]diazacyclopentadecin-6-yl)carbamate]: the pEC50 in experiment [1] and in experiment [2] was above 8.26 in each case.
As for `COc1cccc2c(O[C@@H]3C[C@H]4C(=O)N[C@]5(C(=O)NS(=O)(=O)C6(C)CC6)C[C@H]5/C=C\CC[C@H](C)C[C@@H](C)[C@H](NC(=O)OC(C)(C)C(F)(F)F)C(=O)N4C3)nccc12` [Compound 3037, 1,1,1-trifluoro-2-methylpropan-2-yl((2R,6S,7R,9S,13aS,14aR,16aS,Z)-2-((5-methoxyisoquinolin-1-yl)oxy)-7,9-dimethyl-14a-(((1-methylcyclopropyl)sulfonyl)carbamoyl)-5,16-dioxo-1,2,3,5,6,7,8,9,10,11,13a,14,14a,15,16,16a-hexadecahydrocyclopropa[e]pyrrolo[1,2-a][1,4]diazacyclopentadecin-6-yl)carbamate], the pEC50 in experiment [1] was 6.99 to 8.32; in experiment [2], above 8.26.
For `COc1cccc2c(O[C@@H]3C[C@H]4C(=O)N[C@]5(C(=O)NS(=O)(=O)C6(CF)CC6)C[C@H]5/C=C\CC[C@@H](C)C[C@@H](C)[C@H](NC(=O)OC(C)(C)C)C(=O)N4C3)nccc12` [Compound 3039, tert-butyl ((2R,6S,7R,9R,13aS,14aR,16aS,Z)-14a-(((1-(fluoromethyl)cyclopropyl)sulfonyl)carbamoyl)-2-((5-methoxyisoquinolin-1-yl)oxy)-7,9-dimethyl-5,16-dioxo-1,2,3,5,6,7,8,9,10,11,13a,14,14a,15,16,16a-hexadecahydrocyclopropa[e]pyrrolo[1,2-a][1,4]diazacyclopentadecin-6-yl)carbamate], the negative logarithm of the EC50 (pEC50) in experiment [1] and in experiment [2] was above 8.26 in each case.
Take `COc1cccc2c(O[C@@H]3C[C@H]4C(=O)N[C@]5(C(=O)NS(=O)(=O)C6(CF)CC6)C[C@H]5/C=C\CC[C@@H](C)C[C@@H](C)[C@H](NC(=O)OC(C)(C)C(F)(F)F)C(=O)N4C3)nccc12` [Compound 3040]: the negative logarithm of the EC50 (pEC50) in experiment [1] (GETYPE1A) and in experiment [2] (GETYPE1B) was above 8.26 each time.
For `COc1ccc2c(O[C@@H]3C[C@H]4C(=O)N[C@]5(C(=O)NS(=O)(=O)C6CC6)C[C@H]5/C=C\CC[C@H](C)C[C@@H](C)[C@H](NC(=O)OC(C)(C)C)C(=O)N4C3)nc(-c3ccc(F)cc3)cc2c1` [Compound 3041, tert-butyl ((2R,6S,7R,9S,13aS,14aR,16aS,Z)-14a-((cyclopropylsulfonyl)carbamoyl)-2-((3-(4-fluorophenyl)-6-methoxyisoquinolin-1-yl)oxy)-7,9-dimethyl-5,16-dioxo-1,2,3,5,6,7,8,9,10,11,13a,14,14a,15,16,16a-hexadecahydrocyclopropa[e]pyrrolo[1,2-a][1,4]diazacyclopentadecin-6-yl)carbamate], the pEC50 in experiment [1] and in experiment [2] was above 8.26 each time.
In the case of `COc1ccc2c(O[C@@H]3C[C@H]4C(=O)N[C@]5(C(=O)NS(=O)(=O)C6CC6)C[C@H]5/C=C\CC[C@@H](C)C[C@@H](C)[C@H](NC(=O)OC(C)(C)C)C(=O)N4C3)nc(-c3ccc(F)cc3)cc2c1` [Compound 3042, tert-butyl ((2R,6S,7R,9R,13aS,14aR,16aS,Z)-14a-((cyclopropylsulfonyl)carbamoyl)-2-((3-(4-fluorophenyl)-6-methoxyisoquinolin-1-yl)oxy)-7,9-dimethyl-5,16-dioxo-1,2,3,5,6,7,8,9,10,11,13a,14,14a,15,16,16a-hexadecahydrocyclopropa[e]pyrrolo[1,2-a][1,4]diazacyclopentadecin-6-yl)carbamate], the negative logarithm of the EC50 (pEC50) in experiment [1] and in experiment [2] was above 8.26 throughout.
`COc1ccc2c(O[C@@H]3C[C@H]4C(=O)N[C@]5(C(=O)NS(=O)(=O)C6CC6)C[C@H]5/C=C\CC[C@H](C)C[C@@H](C)[C@H](NC(=O)OC(C)(C)C(F)(F)F)C(=O)N4C3)nc(-c3ccc(F)cc3)cc2c1` [Compound 3043, 1,1,1-trifluoro-2-methylpropan-2-yl((2R,6S,7R,9S,13aS,14aR,16aS,Z)-14a-((cyclopropylsulfonyl)carbamoyl)-2-((3-(4-fluorophenyl)-6-methoxyisoquinolin-1-yl)oxy)-7,9-dimethyl-5,16-dioxo-1,2,3,5,6,7,8,9,10,11,13a,14,14a,15,16,16a-hexadecahydrocyclopropa[e]pyrrolo[1,2-a][1,4]diazacyclopentadecin-6-yl)carbamate]: the pEC50 in experiment [1] and in experiment [2] was above 8.26 in each case.
Turning to `COc1ccc2c(O[C@@H]3C[C@H]4C(=O)N[C@]5(C(=O)NS(=O)(=O)C6CC6)C[C@H]5/C=C\CC[C@@H](C)C[C@@H](C)[C@H](NC(=O)OC(C)(C)C(F)(F)F)C(=O)N4C3)nc(-c3ccc(F)cc3)cc2c1` [Compound 3044, 1,1,1-trifluoro-2-methylpropan-2-yl((2R,6S,7R,9R,13aS,14aR,16aS,Z)-14a-((cyclopropylsulfonyl)carbamoyl)-2-((3-(4-fluorophenyl)-6-methoxyisoquinolin-1-yl)oxy)-7,9-dimethyl-5,16-dioxo-1,2,3,5,6,7,8,9,10,11,13a,14,14a,15,16,16a-hexadecahydrocyclopropa[e]pyrrolo[1,2-a][1,4]diazacyclopentadecin-6-yl)carbamate], the pEC50 in experiment [1] and in experiment [2] was above 8.26 each time.
